In brackets after ≈: the same amount, converted by molar mass. Where two headings read alike, the source gives them in different places.
Columns and labels:
Escherichia coli NIHJ = assay: Minimum Inhibitory Concentration (standard method of the Japan Society of Chemotherapy); format: cell-based; conditions: Muller-Hinton bouillon, 10^6/ml bacteria, 37° C., 18 hours
Description: (§1) Determined by the standard method of the Japan Society of Chemotherapy: i
(§2) MullerHinton bouillon, 10^6 /ml of bacteria were seeded and incubated
(§3) at 37° C. for 18 hours.

Proteus vulgaris 3167 = assay: as above; format: cell-based; conditions: read-out: Minimum Inhibitory Concentration (MIC)
Description: as §1, §2, §3

[1] = test system: Pseudomonas aeruginosa 2131; assay: as above; format: cell-based; conditions: read-out: Minimum Inhibitory Concentration (MIC)
Description: as §1, §2, §3

[2] = test system: Pseudomonas cepacia IID 1340; assay: as above; format: cell-based; conditions: Burkholderia cepacia, read-out: Minimum Inhibitory Concentration (MIC)
Description: as §1, §2, §3

[3] = test system: Pseudomonas maltophilia IID 1275; assay: as above; format: cell-based; conditions: Stenotrophomonas maltophilia, read-out: Minimum Inhibitory Concentration (MIC)
Description: as §1, §2, §3

[4] = test system: Serratia marcessens 13001; assay: as above; format: cell-based; conditions: Muller-Hinton bouillon, 10^6/ml bacteria, 37° C., 18 hours
Description: as §1, §2, §3

[5] = test system: Staphylococcus aureus Smith; assay: as above; format: cell-based; conditions: read-out: Minimum Inhibitory Concentration (MIC)
Description: as §1, §2, §3

[6] = test system: Staphylococcus epidermidis 56556; assay: as above; format: cell-based; conditions: read-out: Minimum Inhibitory Concentration (MIC)
Description: as §1, §2, §3

[7] = test system: Streptococcus faecalis ATCC 19433; assay: as above; format: cell-based; conditions: Enterococcus faecalis, read-out: Minimum Inhibitory Concentration (MIC)
Description: as §1, §2, §3

[8] = test system: gram-positive and gram-negative bacteria; assay: antibacterial activity (statement in words); format: cell-based
[9] = pharmacokinetic properties: blood level, intestinal absorption (statement in words); format: in vivo; conditions: in comparison with cyprofloxacin
[10] = Proteus vulgaris 3167, Muller-Hinton bouillon, 10^6/ml bacteria, 37° C., 18 hours
[11] = Pseudomonas aeruginosa 2131, Muller-Hinton bouillon, 10^6/ml bacteria, 37° C., 18 hours
[12] = IID1340, Pseudomonas cepacia IID 1340, Muller-Hinton bouillon, 10^6/ml bacteria, 37° C., 18 hours
[13] = IID1275, Pseudomonas maltophilia IID 1275, Muller-Hinton bouillon, 10^6/ml bacteria, 37° C., 18 hours
[14] = Staphylococcus aureus Smith, Muller-Hinton bouillon, 10^6/ml bacteria, 37° C., 18 hours
[15] = Staphylococcus epidermidis 56556, Muller-Hinton bouillon, 10^6/ml bacteria, 37° C., 18 hours
[16] = ATCC19433, Streptococcus faecalis ATCC 19433, Muller-Hinton bouillon, 10^6/ml bacteria, 37° C., 18 hours

Compound	MIC (Escherichia coli NIHJ)	MIC (Proteus vulgaris 3167; [10])	MIC [1, 11]	MIC [2, 12]	MIC [3, 13]	MIC [4]	MIC [5, 14]	MIC [6, 15]	MIC [7, 16]	antibacterial activity [8]	blood level [9]	intestinal absorption [9]	MIC (Proteus vulgaris 3167; Proteus vulgaris, 3167, 18 h)	MIC ([1]; Pseudomonas aeruginosa, 2131, 18 h)	MIC ([2]; IID1340, 18 h)	MIC ([3]; IID1275, 18 h)	MIC ([5]; Staphylococcus aureus, 18 h)	MIC ([6]; Staphylococcus epidermidis, 56556, 18 h)	MIC ([7]; ATCC19433, 18 h)
O=C(O)c1cn([C@@H]2C[C@@H]2F)c2cc(N3CCNCC3)c(F)cc2c1=O (relative stereo) [Ia-2, 1-(cis-2-fluorocyclopropyl)-6-fluoro-1,4-dihydro-7-(1-piperazinyl)-4-oxoquinoline-3-carboxylic acid]	≤ 0.05 µg/mL	≤ 0.05 µg/mL	≤ 0.05 µg/mL	1.56 µg/mL (≈ 4.47 µM)	0.78 µg/mL (≈ 2.23 µM)	≤ 0.05 µg/mL	0.1 µg/mL (≈ 0.286 µM)	0.2 µg/mL (≈ 0.573 µM)	1.56 µg/mL (≈ 4.47 µM)										
O=C(O)c1cn([C@@H]2C[C@@H]2F)c2c(F)c(N3CCNCC3)c(F)cc2c1=O (relative stereo) [Ib-2, 1-(2-fluorocyclopropyl)-6,8-difluoro-1,4-dihydro-7-(1-piperazinyl)-4-oxoquinoline-3-carboxylic acid]	≤ 0.05 µg/mL	≤ 0.05 µg/mL	≤ 0.05 µg/mL	1.56 µg/mL (≈ 4.25 µM)	0.78 µg/mL (≈ 2.12 µM)	≤ 0.05 µg/mL	0.1 µg/mL (≈ 0.272 µM)	0.2 µg/mL (≈ 0.544 µM)	1.56 µg/mL (≈ 4.25 µM)										
CN1CCN(c2cc3c(cc2F)c(=O)c(C(=O)O)cn3[C@@H]2C[C@@H]2F)CC1 (relative stereo) [Ia-1, 1-(cis-2-fluorocyclopropyl)-6-fluoro-1,4-dihydro-7-(4-methyl-1-piperazinyl)-4-oxoquinoline-3-carboxylic acid]	≤ 0.05 µg/mL	≤ 0.05 µg/mL	0.2 µg/mL (≈ 0.55 µM)	0.2 µg/mL (≈ 0.55 µM)	0.2 µg/mL (≈ 0.55 µM)	≤ 0.05 µg/mL	≤ 0.05 µg/mL	0.1 µg/mL (≈ 0.275 µM)	0.78 µg/mL (≈ 2.15 µM)	strong antibacterial activity	high blood level	good intestinal absorption							
O=C(O)c1cn(C2CC2)c2c(F)c(N3CCNCC3)c(F)cc2c1=O [Ba-4, 1cyclopropyl-6,8-difluoro-1,4-dihydro-7-(1-piperazinyl)-4-oxoquinoline-3-carboxylic acid, reference compound]	≤ 0.05 µg/mL	≤ 0.05 µg/mL	≤ 0.05 µg/mL	0.39 µg/mL (≈ 1.12 µM)	0.39 µg/mL (≈ 1.12 µM)	≤ 0.05 µg/mL	0.2 µg/mL (≈ 0.573 µM)	0.2 µg/mL (≈ 0.573 µM)	0.78 µg/mL (≈ 2.23 µM)										
CN1CCN(c2c(F)cc3c(=O)c(C(=O)O)cn(C4CC4)c3c2F)CC1 [Ba-3, 1cyclopropyl-6,8-difluoro-1,4-dihydro-7-(4-methyl-1-piperazinyl)-4-oxoquinoline-3-carboxylic acid, reference compound]	≤ 0.05 µg/mL	≤ 0.05 µg/mL	0.2 µg/mL (≈ 0.55 µM)	0.78 µg/mL (≈ 2.15 µM)	≤ 0.05 µg/mL	≤ 0.05 µg/mL	0.2 µg/mL (≈ 0.55 µM)	0.2 µg/mL (≈ 0.55 µM)	0.78 µg/mL (≈ 2.15 µM)										
CN1CCN(c2c(F)cc3c(=O)c(C(=O)O)cn([C@@H]4C[C@@H]4F)c3c2F)CC1 (relative stereo) [Ib-1, 1-(2-fluorocyclopropyl)-6,8-difluoro-1,4-dihydro-7-(4-methyl-1-piperazinyl)-4-oxoquinoline-3-carboxylic acid]	≤ 0.05 µg/mL	≤ 0.05 µg/mL	0.1 µg/mL (≈ 0.262 µM)	0.78 µg/mL (≈ 2.05 µM)	0.1 µg/mL (≈ 0.262 µM)	≤ 0.05 µg/mL	0.1 µg/mL (≈ 0.262 µM)	0.2 µg/mL (≈ 0.524 µM)	0.78 µg/mL (≈ 2.05 µM)										
CN1CCN(c2cc3c(cc2F)c(=O)c(C(=O)O)cn3C2CC2)CC1 [Ba-1, 1cyclopropyl-6-fluoro-1,4-dihydro-7-(4-methyl-1-piperazinyl)-4-oxoquinoline-3-carboxylic acid, reference compound]	≤ 0.05 µg/mL	≤ 0.05 µg/mL	0.1 µg/mL (≈ 0.29 µM)	0.78 µg/mL (≈ 2.26 µM)	0.2 µg/mL (≈ 0.579 µM)	0.1 µg/mL (≈ 0.29 µM)	0.2 µg/mL (≈ 0.579 µM)	0.39 µg/mL (≈ 1.13 µM)	0.78 µg/mL (≈ 2.26 µM)										
O=C(O)c1cn(C2CC2)c2cc(N3CCNCC3)c(F)cc2c1=O [Ba-2, 1-cyclopropyl-6-fluoro-1,4-dihydro-7-(1-piperazinyl)-4-oxoquinoline-3-carboxylic acid, reference compound]	≤ 0.05 µg/mL					≤ 0.05 µg/mL							≤ 0.05 µg/mL	≤ 0.05 µg/mL	3.13 µg/mL (≈ 9.45 µM)	0.78 µg/mL (≈ 2.35 µM)	0.1 µg/mL (≈ 0.302 µM)	0.2 µg/mL (≈ 0.604 µM)	0.78 µg/mL (≈ 2.35 µM)

— patent US4871852A, “Quinoline-carboxylic acid derivatives” (Daiichi Seiyaku Co., Ltd., priority 1984, dated 1989)
